Laboratory results published in ChEMBL document CHEMBL3400067, “Synthesis, antinociceptive and anti-inflammatory effects of porphyrins” (Bioorg Med Chem, 2015).
Calls of active or inactive are those of the source. No cut-off for these calls is given here.

How the values were obtained:
[1] = test system: Mus musculus; assay: Antiinflammatory activity against carrageenan-kaolin-induced arthritis CD-1 mouse model assessed as decrease in PGE2 level in serum at 1 mg/kg, po for 8 days relative to vehicle treated control; assay type: functional; details: CD-1, Serum, 192 h
[2] = test system: Mus musculus; assay: Anti-arthritic activity against carrageenan-kaolin-induced arthritis CD-1 mouse model assessed as decrease in TNF-alpha level in serum at 1 mg/kg, po for 8 days relative to vehicle treated control; assay type: functional
[3] = test system: Mus musculus; assay: Anti-arthritic activity in CD-1 mouse assessed as inhibition of carrageenan-kaolin-induced arthritis at 1 mg/kg, po for 8 days relative to vehicle treated control; assay type: functional; details: CD-1, 192 h
[4] = test system: Mus musculus; assay: Antiinflammatory activity against carrageenan-kaolin-induced arthritis CD-1 mouse model assessed as decrease in NO level in serum at 1 mg/kg, po for 8 days relative to vehicle treated control; assay type: functional; details: CD-1, Serum, 192 h
[5] = test system: Mus musculus; assay: Anti-arthritic activity in po dosed CD-1 mouse assessed as inhibition of carrageenan-kaolin-induced arthritis at treated for 8 days relative to vehicle treated control; assay type: functional, organism-based; details: TDE = time-dependent effect
[6] = test system: Mus musculus; assay: Anti-arthritic activity against carrageenan-kaolin-induced arthritis CD-1 mouse model assessed as decrease in spleen index at 1 mg/kg, po for 8 days relative to vehicle treated control; assay type: functional; details: CD-1, Spleen, 192 h
[7] = test system: Mus musculus; assay: Anti-arthritic activity against carrageenan-kaolin-induced arthritis CD-1 mouse model assessed as decrease in IL-1beta level in serum at 1 mg/kg, po for 8 days relative to vehicle treated control; assay type: functional
[8] = test system: Mus musculus; assay: Anti-arthritic activity against carrageenan-kaolin-induced arthritis CD-1 mouse model assessed as decrease in IL-6 level in serum at 1 mg/kg, po for 8 days relative to vehicle treated control; assay type: functional
[9] = test system: Mus musculus; assay: Antiinflammatory activity in po dosed CD-1 mouse ear edema model assessed as reduction in TPA-induced edema size administered 30 mins prior to TPA-challenge for every 48 hrs for 10 days relative to vehicle treated control; assay type: functional, organism-based
[10] = test system: Mus musculus; assay: Antiinflammatory activity in CD-1 mouse ear edema model assessed as reduction in TPA-induced edema size at 8 mg/kg, po administered 30 mins prior to TPA-challenge for every 48 hrs for 10 days relative to vehicle treated control; assay type: functional; details: CD-1, Ear
[11] = test system: Mus musculus; assay: Antiinflammatory activity in CD-1 mouse ear edema model assessed as reduction in TPA-induced edema size at 2 mg/ear, topically administered 30 mins prior to TPA-challenge measured after 6 hrs relative to control; assay type: functional
[12] = test system: Mus musculus; assay: Antiinflammatory activity in CD-1 mouse ear edema model assessed as reduction in TPA-induced edema size at 200 mg/kg, po administered 30 mins prior to TPA-challenge for every 48 hrs for 10 days relative to vehicle treated control; assay type: functional; details: CD-1, Ear
[13] = Antiinflammatory activity against Wistar rat erythrocytes assessed as inhibition of heat-induced hemolysis after 15 mins by membrane stabilizing activity assay; assay type: functional, cell-based; details: erythrocyte
[14] = test system: Mus musculus; assay: Anti-arthritic activity against carrageenan-kaolin-induced arthritis CD-1 mouse model assessed as decrease in spleen index at 200 mg/kg, po for 8 days relative to vehicle treated control; assay type: functional; details: CD-1, Spleen, 192 h
[15] = test system: Mus musculus; assay: Antiinflammatory activity against carrageenan-kaolin-induced arthritis CD-1 mouse model assessed as decrease in NO level in serum at 200 mg/kg, po for 8 days relative to vehicle treated control; assay type: functional; details: CD-1, Serum, 192 h
[16] = test system: Mus musculus; assay: Antinociceptive activity against CD-1 mouse assessed as licking of hind paw or jumping at 100 mg/kg, po after 90 mins; assay type: functional; details: CD-1, 1.5 h
[17] = test system: Mus musculus; assay: Antinociceptive activity in CD-1 mouse assessed as licking time during phase 1 at 50 to 200 mg/kg, po administered 1 hr prior to formalin-challenge; assay type: functional, organism-based
[18] = test system: Mus musculus; assay: Anti-arthritic activity in CD-1 mouse assessed as inhibition of carrageenan-kaolin-induced arthritis at 200 mg/kg, po for 8 days relative to vehicle treated control; assay type: functional; details: CD-1, 192 h
[19] = test system: Mus musculus; assay: Antiinflammatory activity against carrageenan-kaolin-induced arthritis CD-1 mouse model assessed as decrease in PGE2 level in serum at 200 mg/kg, po for 8 days relative to vehicle treated control; assay type: functional; details: CD-1, Serum, 192 h
[20] = test system: Mus musculus; assay: Anti-arthritic activity against carrageenan-kaolin-induced arthritis CD-1 mouse model assessed as decrease in IL-1beta level in serum at 200 mg/kg, po for 8 days relative to vehicle treated control; assay type: functional
[21] = test system: Mus musculus; assay: Anti-arthritic activity against carrageenan-kaolin-induced arthritis CD-1 mouse model assessed as decrease in IL-6 level in serum at 200 mg/kg, po for 8 days relative to vehicle treated control; assay type: functional
[22] = test system: Mus musculus; assay: Anti-arthritic activity against carrageenan-kaolin-induced arthritis CD-1 mouse model assessed as decrease in TNF-alpha level in serum at 200 mg/kg, po for 8 days relative to vehicle treated control; assay type: functional

## CN(Cc1cnc2nc(N)nc(N)c2n1)c1ccc(C(=O)N[C@@H](CCC(=O)O)C(=O)O)cc1 [METHOTREXATE]
[1]
  inhibition in vivo at 1 mg/kg: 66%
[2]
  fold change (FC): 2.1
[3]
  inhibition in vivo at 1 mg/kg: 49%
[4]
  inhibition in vivo at 1 mg/kg: 76%
[5]
  Activity: tde
[6]
  inhibition in vivo at 1 mg/kg: 38%
[7]
  fold change (FC): 2
[8]
  fold change (FC): 2.8

## COc1ccc2c(c1)c(CC(=O)O)c(C)n2C(=O)c1ccc(Cl)cc1 [INDOMETHACIN]
[9]
  inhibition: Dose-dependent effect
[10]
  inhibition in vivo at 8 mg/kg: 55%
[11]
  inhibition (INH): 76%

## Fc1ccc(-c2c3nc(c(-c4ccc(F)cc4)c4ccc([nH]4)c(-c4ccc(F)cc4)c4nc(c(-c5ccc(F)cc5)c5ccc2[nH]5)C=C4)C=C3)cc1
[12]
  inhibition in vivo at 200 mg/kg: 36%
[13]
  EC50: 395 µM
[11]
  inhibition (INH): 38%
[14]
  inhibition in vivo at 200 mg/kg: 20%
[5]
  Activity: tde
[15]
  inhibition in vivo at 200 mg/kg: 44%
[16]
  inhibition in vivo at 100 mg/kg: 20%
[17]
  Activity: Active
[18]
  inhibition in vivo at 200 mg/kg: 30%
[19]
  inhibition in vivo at 200 mg/kg: 41%

## Brc1ccc(-c2c3nc(c(-c4ccc(Br)cc4)c4ccc([nH]4)c(-c4ccc(Br)cc4)c4nc(c(-c5ccc(Br)cc5)c5ccc2[nH]5)C=C4)C=C3)cc1
[20]
  fold change (FC): 1.6
[12]
  inhibition in vivo at 200 mg/kg: 23%
[21]
  fold change (FC): 1.3
[13]
  EC50: 342 µM
[11]
  inhibition (INH): 67%
[14]
  inhibition in vivo at 200 mg/kg: 17%
[5]
  Activity: tde
[15]
  inhibition in vivo at 200 mg/kg: 36%
[16]
  inhibition in vivo at 100 mg/kg: 32%
[17]
  Activity: Active
[22]
  fold change (FC): 1.1
[18]
  inhibition in vivo at 200 mg/kg: 27%
[19]
  inhibition in vivo at 200 mg/kg: 32%

## COc1ccc2cc([C@H](C)C(=O)O)ccc2c1 [NAPROXEN]
[13]
  EC50: 756 µM
[16]
  inhibition in vivo at 100 mg/kg: 36%
